{"source": "patent US8080529B2", "about": "“Macrolides with anti-inflammatory activity” (Glaxo Group Limited, priority 2005, dated 2011)", "key": {"A549": {"system": "A549", "assay": "Cytotoxicity assay (MTT), A549 cell line", "type": "cell-based", "details": "24 h", "method_in_brief": "(§1)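 Viability was read as MTT-formazan absorbance at 490 nm after 0.5-2 h with reagent. This followed 24 h compound exposure (50 μM, 12.5 μM) at 37° C in RPM medium. Result expressed as OD490 treated over untreated cells ×100.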"}, "IL-6": {"system": "IL-6", "assay": "Inhibition of IL-6 production by stimulated human peripheral blood leukocytes in vitro", "type": "cell-based", "details": "for inhibition at 10 µM / inhibition at 50 µM: Homo sapiens, Leukocyte, read-out: Percentage of inhibition of IL-6 production", "method_in_brief": "(§2)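 Dextran-sedimented human PBL (3–5×10^6/well) preincubated 2 h at 37 °C with compounds at 50 μM or 10 μM, then stimulated overnight with LPS 2 μg/mL, PMA 1 μg/mL or zymosan 120 μg/mL. Supernatant cytokines quantified by sandwich ELISA; % inhibition versus stimulated untreated controls.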"}, "TNF-α [1]": {"system": "TNF-α", "assay": "Inhibition of TNF-α production by stimulated human peripheral blood leukocytes in vitro", "type": "cell-based", "details": "for inhibition at 10 µM / inhibition at 50 µM: Homo sapiens, Leukocyte, read-out: Percentage of inhibition of TNF-α production", "method_in_brief": "as §2"}, "IL-1α": {"system": "IL-1α", "assay": "Inhibition of IL-1 production by stimulated human peripheral blood leukocytes in vitro", "type": "cell-based", "details": "for inhibition at 10 µM / inhibition at 50 µM: Homo sapiens, Leukocyte, read-out: Percentage of inhibition of IL-1α production"}, "[2]": {"system": "human peripheral blood mononuclear cells (PBMC)", "assay": "Effects on human T-cell proliferation in vitro (3H-thymidine incorporation)", "type": "cell-based", "details": "for inhibition at 10 µM / inhibition at 50 µM: Homo sapiens, PBMC, read-out: Percentage of inhibition of proliferation of stimulated PBMC", "procedure": "The influence of the various test compounds at two different concentrations (50 μM and 10 μM) on cell proliferation of human peripheral blood mononuclear cells (PBMC) was assessed. […] The cells were pulsed with 1 μCi of ^3H-thymidine (Amersham, USA) per well during the last 18 h of the culture, and were harvested on the 96-well filter (Packard Bioscience, USA) using a multiple cell harvester (Packard, USA). The incorporation of ^3H-thymidine in activated cells were measured using TopCount NXT (Packard, USA). […] The positive control refers to LPS-, PMA- or zymosan-stimulated samples that were not treated with test compounds."}, "Hep G2": {"system": "Hep G2", "assay": "Cytotoxicity assay (MTT), Hep G2 cell line", "type": "cell-based", "details": "24 h", "method_in_brief": "as §1"}, "IL-8": {"system": "IL-8", "assay": "Inhibition of IL-8 production by stimulated human peripheral blood leukocytes in vitro", "type": "cell-based", "details": "for inhibition at 10 µM / inhibition at 50 µM: Homo sapiens, Leukocyte, read-out: Percentage of inhibition of IL-8 production", "method_in_brief": "as §2"}, "TNF-α [3]": {"system": "TNF-α", "assay": "Lipopolysaccharide induced TNF-α production in Balb/cJ mice", "type": "in vivo", "details": "10 mg/kg intraperitoneally, 30 min before LPS; 90 min after LPS"}}, "note": "Read-outs that look alike come from different tables or passages of the source.", "data": [{"smiles": "CC[C@H]1OC(=O)[C@H](C)[C@@H](O[C@H]2C[C@@](C)(OC)[C@@H](OC(=O)CCN(CC)CC)[C@H](C)O2)[C@H](C)[C@@H](O[C@@H]2O[C@H](C)C[C@H](N(C)C)[C@H]2O)[C@](C)(OC)C[C@@H](C)NC(=O)[C@H](C)[C@@H](O)[C@]1(C)O", "note": "[Example 3, 4″-O-(3-Diethylamino-Propionyl)-6-O-methyl-8a-aza-8a-homoerythromycin A]", "values": [{"measurement": "Percentage of inhibition of cell growth", "setting": "A549; 12.5 μM", "value": 0, "unit": "%"}, {"measurement": "Percentage of inhibition of cell growth", "setting": "A549; 50 μM", "value": 0, "unit": "%"}, {"measurement": "inhibition at 10 µM", "setting": "IL-6; 10 μM, LPS-stimulated PBL", "value": 56, "unit": "%"}, {"measurement": "inhibition at 10 µM", "setting": "IL-6; 10 μM, PMA-stimulated PBL", "value": 60, "unit": "%"}, {"measurement": "inhibition at 10 µM", "setting": "IL-6; 10 μM, zymosan-stimulated PBL", "value": 44, "unit": "%"}, {"measurement": "inhibition at 50 µM", "setting": "IL-6; 50 μM, LPS-stimulated PBL", "value": 78, "unit": "%"}, {"measurement": "inhibition at 50 µM", "setting": "IL-6; 50 μM, PMA-stimulated PBL", "value": 66, "unit": "%"}, {"measurement": "inhibition at 50 µM", "setting": "IL-6; 50 μM, zymosan-stimulated PBL", "value": 74, "unit": "%"}, {"measurement": "inhibition at 10 µM", "setting": "TNF-α [1]; 10 μM, LPS-stimulated PBL", "value": 72, "unit": "%"}, {"measurement": "inhibition at 10 µM", "setting": "TNF-α [1]; 10 μM, PMA-stimulated PBL", "value": 91, "unit": "%"}, {"measurement": "inhibition at 10 µM", "setting": "TNF-α [1]; 10 μM, zymosan-stimulated PBL", "value": 76, "unit": "%"}, {"measurement": "inhibition at 50 µM", "setting": "TNF-α [1]; 50 μM, LPS-stimulated PBL", "value": 81, "unit": "%"}, {"measurement": "inhibition at 50 µM", "setting": "TNF-α [1]; 50 μM, PMA-stimulated PBL", "value": 83, "unit": "%"}, {"measurement": "inhibition at 50 µM", "setting": "TNF-α [1]; 50 μM, zymosan-stimulated PBL", "value": 96, "unit": "%"}, {"measurement": "inhibition at 10 µM", "setting": "IL-1α; 10 μM, LPS-stimulated PBL", "value": 87, "unit": "%"}, {"measurement": "inhibition at 10 µM", "setting": "IL-1α; 10 μM, PMA-stimulated PBL", "value": 73, "unit": "%"}, {"measurement": "inhibition at 10 µM", "setting": "IL-1α; 10 μM, zymosan-stimulated PBL", "value": 88, "unit": "%"}, {"measurement": "inhibition at 50 µM", "setting": "IL-1α; 50 μM, LPS-stimulated PBL", "value": 86, "unit": "%"}, {"measurement": "inhibition at 50 µM", "setting": "IL-1α; 50 μM, PMA-stimulated PBL", "value": 68, "unit": "%"}, {"measurement": "inhibition at 50 µM", "setting": "IL-1α; 50 μM, zymosan-stimulated PBL", "value": 91, "unit": "%"}, {"measurement": "inhibition at 10 µM", "setting": "[2]; PHA, 10 μM", "value": 2, "unit": "%"}, {"measurement": "inhibition at 50 µM", "setting": "[2]; PHA, 50 μM", "value": 75, "unit": "%"}, {"measurement": "inhibition at 10 µM", "setting": "[2]; PMA + iono., 10 μM", "value": 17, "unit": "%"}, {"measurement": "inhibition at 50 µM", "setting": "[2]; PMA + iono., 50 μM", "value": 81, "unit": "%"}, {"measurement": "Percentage of inhibition of cell growth", "setting": "Hep G2; 12.5 μM", "value": 0, "unit": "%"}, {"measurement": "Percentage of inhibition of cell growth", "setting": "Hep G2; 50 μM", "value": 0, "unit": "%"}, {"measurement": "inhibition at 10 µM", "setting": "IL-8; 10 μM, LPS-stimulated PBL", "value": 48, "unit": "%"}, {"measurement": "inhibition at 10 µM", "setting": "IL-8; 10 μM, PMA-stimulated PBL", "value": 30, "unit": "%"}, {"measurement": "inhibition at 10 µM", "setting": "IL-8; 10 μM, zymosan-stimulated PBL", "value": 32, "unit": "%"}, {"measurement": "inhibition at 50 µM", "setting": "IL-8; 50 μM, LPS-stimulated PBL", "value": 71, "unit": "%"}, {"measurement": "inhibition at 50 µM", "setting": "IL-8; 50 μM, PMA-stimulated PBL", "value": 22, "unit": "%"}, {"measurement": "inhibition at 50 µM", "setting": "IL-8; 50 μM, zymosan-stimulated PBL", "value": 16, "unit": "%"}]}, {"smiles": "CCC1OC(=O)C(C)C(OC2CC(C)(OC)C(OC(=O)CCN(CC)CC)C(C)O2)C(C)C(OC2OC(C)CC(N(C)C)C2O)C(C)(OC)CC(C)C(=O)NC(C)C(O)C1(C)O", "note": "(stereo not shown) [Example 8, 4″-O-(3-Diethylamino-propionyl)-6-O-methyl-9a-aza-9a-homoerythromycin A]", "values": [{"measurement": "% inhibition of TNF-α production (plasma)", "setting": "TNF-α [3]", "value": 93, "unit": "%"}, {"measurement": "Percentage of inhibition of IL-6 production", "setting": "IL-6; 10 μM, LPS-stimulated PBL", "value": 16, "unit": "%"}, {"measurement": "Percentage of inhibition of IL-6 production", "setting": "IL-6; 10 μM, PMA-stimulated PBL", "value": 24, "unit": "%"}, {"measurement": "Percentage of inhibition of IL-6 production", "setting": "IL-6; 10 μM, zymosan-stimulated PBL", "value": 57, "unit": "%"}, {"measurement": "Percentage of inhibition of IL-6 production", "setting": "IL-6; 50 μM, LPS-stimulated PBL", "value": 63, "unit": "%"}, {"measurement": "Percentage of inhibition of IL-6 production", "setting": "IL-6; 50 μM, PMA-stimulated PBL", "value": 100, "unit": "%"}, {"measurement": "Percentage of inhibition of IL-6 production", "setting": "IL-6; 50 μM, zymosan-stimulated PBL", "value": 80, "unit": "%"}, {"measurement": "Percentage of inhibition of TNF-α production", "setting": "TNF-α [1]; 10 μM, LPS-stimulated PBL", "value": 51, "unit": "%"}, {"measurement": "Percentage of inhibition of TNF-α production", "setting": "TNF-α [1]; 10 μM, PMA-stimulated PBL", "value": 46, "unit": "%"}, {"measurement": "Percentage of inhibition of TNF-α production", "setting": "TNF-α [1]; 10 μM, zymosan-stimulated PBL", "value": 87, "unit": "%"}, {"measurement": "Percentage of inhibition of TNF-α production", "setting": "TNF-α [1]; 50 μM, LPS-stimulated PBL", "value": 85, "unit": "%"}, {"measurement": "Percentage of inhibition of TNF-α production", "setting": "TNF-α [1]; 50 μM, PMA-stimulated PBL", "value": 87, "unit": "%"}, {"measurement": "Percentage of inhibition of TNF-α production", "setting": "TNF-α [1]; 50 μM, zymosan-stimulated PBL", "value": 92, "unit": "%"}, {"measurement": "Percentage of inhibition of IL-1α production", "setting": "IL-1α; 10 μM, LPS-stimulated PBL", "value": 66, "unit": "%"}, {"measurement": "Percentage of inhibition of IL-1α production", "setting": "IL-1α; 10 μM, PMA-stimulated PBL", "value": 71, "unit": "%"}, {"measurement": "Percentage of inhibition of IL-1α production", "setting": "IL-1α; 10 μM, zymosan-stimulated PBL", "value": 86, "unit": "%"}, {"measurement": "Percentage of inhibition of IL-1α production", "setting": "IL-1α; 50 μM, LPS-stimulated PBL", "value": 83, "unit": "%"}, {"measurement": "Percentage of inhibition of IL-1α production", "setting": "IL-1α; 50 μM, PMA-stimulated PBL", "value": 86, "unit": "%"}, {"measurement": "Percentage of inhibition of IL-1α production", "setting": "IL-1α; 50 μM, zymosan-stimulated PBL", "value": 94, "unit": "%"}, {"measurement": "Percentage of inhibition of proliferation of stimulated PBMC", "setting": "[2]; PHA, 10 μM", "value": 96, "unit": "%"}, {"measurement": "Percentage of inhibition of proliferation of stimulated PBMC", "setting": "[2]; PHA, 50 μM", "value": 100, "unit": "%"}, {"measurement": "Percentage of inhibition of proliferation of stimulated PBMC", "setting": "[2]; PMA + iono., 10 μM", "value": 37, "unit": "%"}, {"measurement": "Percentage of inhibition of proliferation of stimulated PBMC", "setting": "[2]; PMA + iono., 50 μM", "value": 99, "unit": "%"}, {"measurement": "Percentage of inhibition of IL-8 production", "setting": "IL-8; 10 μM, LPS-stimulated PBL", "value": 38, "unit": "%"}, {"measurement": "Percentage of inhibition of IL-8 production", "setting": "IL-8; 10 μM, PMA-stimulated PBL", "value": 40, "unit": "%"}, {"measurement": "Percentage of inhibition of IL-8 production", "setting": "IL-8; 10 μM, zymosan-stimulated PBL", "value": 31, "unit": "%"}, {"measurement": "Percentage of inhibition of IL-8 production", "setting": "IL-8; 50 μM, LPS-stimulated PBL", "value": 79, "unit": "%"}, {"measurement": "Percentage of inhibition of IL-8 production", "setting": "IL-8; 50 μM, PMA-stimulated PBL", "value": 89, "unit": "%"}, {"measurement": "Percentage of inhibition of IL-8 production", "setting": "IL-8; 50 μM, zymosan-stimulated PBL", "value": 88, "unit": "%"}]}]}
